According to patent US8350084B2, “Alpha-(N-sulfonamido)acetamide compound as an inhibitor of beta amyloid peptide production” (priority 2007, dated 2013):
Entries after “also recorded” stand apart in the source; their conditions may differ.

Key:
[1] = target: T1, human pregnane-X receptor (Homo sapiens, UniProt O75469); assay: PXR transactivation assay; type: cell-based; conditions: hPXR transactivation, transfected HepG2 cells
T1 construct: expressed in transfected cells; host or cells: HepG2 cells (ATCC), transient transfection with Lipofectamine 2000
T1 sequence (O75469 1-434): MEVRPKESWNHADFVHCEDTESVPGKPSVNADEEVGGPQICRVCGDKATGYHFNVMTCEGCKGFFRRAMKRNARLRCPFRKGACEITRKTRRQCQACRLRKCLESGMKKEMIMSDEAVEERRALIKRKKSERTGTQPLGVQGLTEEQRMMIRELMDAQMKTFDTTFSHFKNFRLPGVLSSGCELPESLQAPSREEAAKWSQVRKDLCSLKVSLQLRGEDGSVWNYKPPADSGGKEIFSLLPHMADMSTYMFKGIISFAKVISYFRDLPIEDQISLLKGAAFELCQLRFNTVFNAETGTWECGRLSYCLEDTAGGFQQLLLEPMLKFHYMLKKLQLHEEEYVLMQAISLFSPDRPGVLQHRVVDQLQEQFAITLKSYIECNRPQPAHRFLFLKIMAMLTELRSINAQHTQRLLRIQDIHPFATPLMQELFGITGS
Excerpt: Pregnane X receptor (PXR) is a nuclear hormone receptor principally responsible for the induction of cytochrome P450 (CYP) 3A4, which plays a major role in metabolizing many clinically prescribed drugs. It is well known that the induction of CYP3A4 can cause either drug-drug interaction by increasing the metabolic clearance of co-administered CYP3A4 substrates (Bertilsson, G. et al., Proc. Nat. Acad. Sci. USA (1998) 95: 12208-12213; Lehmann, J. M. et al., J. Clin. Invest. (1998) 102: 1016-1023) or can cause loss of drug exposure due to autoinduction. Characterizing the induction potential of discovery or development drug candidates has become an important screen throughout the pharmaceutical industry. A PXR transactivation assay is used to assess the induction potential of CYP3A4, and a cytotoxicity assay of HepG2 cells is used to monitor the assay interference due to cytotoxicity.
Cell culture medium used is DMEM. Lipofectamine 2000, PBS, trypsin-EDTA (0.25%), and penicillin-streptomycin were purchased from GIBCO/Invitrogen (Carlsbad, Calif.). […]
Cells in each flask are washed with PBS and 4 mL of Trypsin-EDTA (0.25%) is added and incubated for one minute at room temperature. […] Cells are then counted and diluted in media to 3.0×10^5 cells/mL. […] After fifteen minutes, plates are read on a Viewlux (Perkin-Elmer) plate reader. […]

[2] = tested on: γ-secretase inhibitor binding sites in the brain; assay: Gamma-secretase site occupancy in rat brain; type: in vivo; conditions: single dose 1 mg/kg, by 24 hours
Protocol: (§1) Female Harlan Sprague-Dawley rats (˜200-250 g) were dosed daily by oral gavage with a dosing vehicle of 99% PEG-400, 1% Tween-80 at 4 mL/kg in the morning. […] Plasma was obtained after centrifugation. […] CSF samples were centrifuged to remove cells or debris prior to dilution at 1:2 in 4% BSA and frozen for subsequent analysis.
Brain sections were cut coronally at a thickness of 20 μm on a cryostat and thaw-mounted onto Superfrost Plus slides. Sections were saved at the level of the rostral hippocampus, with 3 sections per slide at intervals of about 120 μm, and frozen at −20° C. until use. For occupancy studies, brain sections were warmed to room temperature, dried, incubated for 10 minutes in 50 mM HEPES buffer, pH 7.4, then transferred to the same buffer containing 1.5 nM [^3H]IN973 (Goldstein, M. E. et al., J. Pharmacol. Exp. Ther. (2007) 323:102-108) or [^3H] (R)-4-((N-(1-amino-4-methyl-1-oxopentan-2-yl)-4-chlorophenylsulfonamido)methyl)-N-(2-methoxyethyl)benzamide and incubated at room temperature for 10 minutes. To define nonspecific binding, adjacent sections were incubated in buffer containing [^3H]IN973 or [^3H] […] Optical densities (expressed as digital light units per square millimeter) over areas of interest were measured and expressed as a percent of vehicle control.

[3] = tested on: proximal duodenum; assay: Rat duodenum histopathology (GI toxicity); type: in vivo; conditions: 100 mg/kg/day once daily for 4 days
Protocol: as §1
Following euthanasia by CO2 asphyxiation, approximately 3 cm long sections of the proximal duodenum were removed from the abdomen, rinsed with ice cold Phosphate buffered saline and placed into 10% buffered formalin prior to sectioning. Tissue sections of the duodenum were embedded in liquid paraffin, mounted onto blocks, and cut into triplicate sagittal (cross-luminal) ring sections and stained using the Periodic acid Schiff's base method prior to microscopic evaluation. All animals survived until scheduled necropsy was performed.

[4] = tested on: CYP3A4 mRNA; conditions: human, 3 days, 20 μM
Protocol: Fa2N-4 cells and MFE Support Media F were provided by XenoTech, LLC (Lenexa, Kans.).
Fa2N-4 cells were supplied on 12-well, collagen-coated plates at a seeding density of 0.67×10^6 cells per well. Upon the receipt of the cells, the media were changed and the cells maintained overnight in a humidified, CO2-supplied incubator. After this adaptation period, the cells were examined under a light microscope and a determination was made as to whether the cells were morphologically normal and suitable for use. During the treatment period, the cells were visually inspected on a daily basis; cellular morphology, confluency, and signs of toxicity due to the test article were documented as necessary. […] Fa2N-4 cells were exposed to the test articles for a total of 3 days. The culture medium was replaced daily with fresh medium containing the test articles. After a total of ˜72 hours of exposure, medium was aspirated and the cells washed once with warm phosphate buffered saline solution before adding the cell lysis buffer (Qiagen, Valencia, Calif.).

[5] = tested on: mouse Notch1-ΔE; conditions: Notch IC50 / Aβ40 IC50, 95% CI=163-232
Protocol: Since inhibition of Notch signaling causes undesired, mechanism-based side effects, a cellular assay for Notch1-ΔE signaling was used to counterscreen γ-secretase inhibitors.
Hela cells were maintained in DMEM (GibcoBRL) containing 10% FBS (GibcoBRL), Penicillin/Streptomycin (GibcoBRL) and 2 mM L-glutamine (GibcoBRL). Cells were transiently transfected using TransIT-HelaMONSTER (Mires) according to the manufacturer's directions. Hela cells (ATCC) were plated 16 hours before transfection at a density of 4×10^6 cells per T175 flask in Hela growth media (DMEM (high glucose with HEPES) with glutamine, penicillin, streptomycin and 10% fetal bovine serum). […] Cells were plated into 96 well black Clearview plates (Packard) at a volume of 200 μL/well (1×10^4 cells) and incubated at 37° C. for 1.5 hours to allow cells to adhere to the plates. Test compounds were initially diluted in a 96 well polypropylene plate in 100% DMSO. […] Diluted compound solutions (10 μL) were added to the cell plate yielding a final 0.1% DMSO concentration. Cell plates containing compound were incubated overnight at 37° C. […] The plate was incubated at room temperature for 10 minutes before black backing was attached to the bottom of the plate and the signal was read on a TopCount (Packard). […]

[6] = female, Sprague-Dawley, rat, in vivo
Protocol: Animals were euthanized 12 or 24 hours after the third dose or 5 hours after the fourth dose.

[7] = tested on: brain Aβ40; assay: Rat brain Abeta40 assay (252-TSD ELISA); conditions: for Terminal Brain Abeta 40 5 hr: 5 hr after fourth dose; for Terminal Brain Abeta 40 12 hr: 12 hr after third dose; for Terminal Brain Abeta 40 24 hr: 24 hr after third dose

Question: Which “EC20A (20% of the Rifampicin response at 10 μM)” value [1] does the source give for `NC(=O)[C@@H](CCC(F)(F)F)N(Cc1ccc(-c2ncon2)cc1F)S(=O)(=O)c1ccc(Cl)cc1` [(2R)-2-[[(4-chlorophenyl)sulfonyl][[2-fluoro-4-(1,2,4-oxadiazol-3-yl)phenyl]methyl]amino]-5,5,5-trifluoropentanamide] here?
Answer: 6.9 µM

Question: And the “EC60A (60% of the Rifampicin response at 10 μM)” value [1]?
Answer: greater than 16.7 μM

Question: What about the “brain γ-secretase site occupancy” value [2] of the same compound?
Answer: gradually returned to baseline values

Question: What about the “histological evaluation of duodenal tissue” value [3] of the same compound?
Answer: ⅓ rats dosed with 100 mg/kg/day had mild lesions; also recorded: slight goblet cell metaplasia

Question: And the “induction as % of the induction response caused by rifampicin” value [4]?
Answer: 22%

Question: And the Notch/APP selectivity [5]?
Answer: 193 X

Question: And the “compound exposures after 3 doses relative to exposures after the initial dose” value [6]?
Answer: ≤ 2 fold

Question: And the “Terminal Brain Abeta 40 5 hr” value ([7]; Study No. 1, 3 mg/kg/day)?
Answer: 39% Veh

Question: And the “Terminal Brain Abeta 40 12 hr” value ([7]; Study No. 1, 3 mg/kg/day)?
Answer: 35% Veh

Question: And the “Terminal Brain Abeta 40 24 hr” value ([7]; Study No. 1, 3 mg/kg/day)?
Answer: 92% Veh

Question: What about the “Terminal Brain Abeta 40 5 hr” value ([7]; Study No. 1, 10 mg/kg/day) of the same compound?
Answer: 12% Veh

Question: What about the “Terminal Brain Abeta 40 12 hr” value ([7]; Study No. 1, 10 mg/kg/day) of the same compound?
Answer: 9% Veh

Question: And the “Terminal Brain Abeta 40 24 hr” value ([7]; Study No. 1, 10 mg/kg/day)?
Answer: 28% Veh

Question: What about the “Terminal Brain Abeta 40 5 hr” value ([7]; Study No. 1, 30 mg/kg/day) of the same compound?
Answer: 8% Veh

Question: What about the “Terminal Brain Abeta 40 12 hr” value ([7]; Study No. 1, 30 mg/kg/day) of the same compound?
Answer: 9% Veh

Question: What about the “Terminal Brain Abeta 40 24 hr” value ([7]; Study No. 1, 30 mg/kg/day) of the same compound?
Answer: 13% Veh

Question: And the “Terminal Brain Abeta 40 5 hr” value ([7]; Study No. 2, 3 mg/kg/day)?
Answer: 16% Veh

Question: And the “Terminal Brain Abeta 40 12 hr” value ([7]; Study No. 2, 3 mg/kg/day)?
Answer: 34% Veh

Question: What about the “Terminal Brain Abeta 40 24 hr” value ([7]; Study No. 2, 3 mg/kg/day) of the same compound?
Answer: 94% Veh

Question: What about the “Terminal Brain Abeta 40 5 hr” value ([7]; Study No. 2, 10 mg/kg/day) of the same compound?
Answer: 6% Veh

Question: What about the “Terminal Brain Abeta 40 12 hr” value ([7]; Study No. 2, 10 mg/kg/day) of the same compound?
Answer: 4% Veh

Question: What about the “Terminal Brain Abeta 40 24 hr” value ([7]; Study No. 2, 10 mg/kg/day) of the same compound?
Answer: 23% Veh

Question: What about the “Terminal Brain Abeta 40 5 hr” value ([7]; Study No. 2, 30 mg/kg/day) of the same compound?
Answer: 6% Veh

Question: What about the “Terminal Brain Abeta 40 12 hr” value ([7]; Study No. 2, 30 mg/kg/day) of the same compound?
Answer: 4% Veh

Question: And the “Terminal Brain Abeta 40 24 hr” value ([7]; Study No. 2, 30 mg/kg/day)?
Answer: 15% Veh

Question: And the “Terminal Brain Abeta 40 5 hr” value ([7]; Study No. 2, 100 mg/kg/day)?
Answer: 3% Veh

Question: And the “Terminal Brain Abeta 40 12 hr” value ([7]; Study No. 2, 100 mg/kg/day)?
Answer: 3% Veh

Question: And the “Terminal Brain Abeta 40 24 hr” value ([7]; Study No. 2, 100 mg/kg/day)?
Answer: 7% Veh

Question: What about the “Day 7 5 hr Brain Aβ40” value ([7]; Study No. 3, 30 mg/kg/day) of the same compound?
Answer: 13% Veh

Question: What about the “Day 7 5 hr Brain Aβ40” value ([7]; Study No. 3, 300 mg/kg/day) of the same compound?
Answer: 13% Veh
